“And” between values parts separate entries of the source, which are not always exact repeats. Equal values may be shown once. Read-outs that look alike come from different tables or passages of the source.
How the values were obtained:
[1] = tested on: SRIF receptors ([^125I]SRIF-28 binding sites); experiment: Ex-vivo [^125I]Tyr^26-SRIF-28 binding in rat cortex and hippocampus after s.c. dosing; design: species or system Wistar rats; conditions: 60 min
Protocol: Ex-vivo binding was used to determine to whether compound 14 (a potent sst2 receptor selective hydantoin) when applied peripherally to rates can cross the blood brain barrier, as robust behavioral models are not fully characterized and blood-brain penetration models are not routinely available. […] The rats were given saline or drug sub-cutaneously at the indicated dose (in saline) and killed 60 minutes after application with CO2. The brain was removed and placed on ice; the cerebral cortex and hippocampus were dissected out and weighted. […] The homogenate was stored on ice and used immediately or deep frozen (-70° C.) until used (1-3 days). […] The tables list the effects of compound 14 on cortex (Table 6) and hippocampus (Table 7) binding at the doses and times indicated (see also FIGS. 3 and 4). TB=total binding, NS=non specific binding, SB=specific binding. The values are indicated in cpm for individual animals, mean, n=number of animals, sem=standard error of the mean; percent=% specific binding remaining following treatment compared to controls.

[2] = Brain penetration in rat after 48-hour intravenous infusion; assay type: in vivo; conditions: rats; for concentration at 48 h / Kp at 48 h: male, rat, iv, 100 μg/h; for Kp at 48 h: brain/whole blood
Protocol: The in vivo brain penetration of compound 42 after a 48-hour intravenous infusion was assessed. [^14C]-42-ch was intravenously administered to 5 male rats at a loading dose of 0.3 mg(-b)/rat and then infused at a constant rate of 100 μg(-b)/h for 48 hours using a syringe pump connected to the femoral vein. Immediately after stopping the infusion, the rats were sacrificed. Blood and brain were collected and analyzed for total radioactivity and unchanged compound 42.

[3] = Capillary depletion of brain hemispheres; assay type: in vivo, rat; conditions: n=3 rats
Protocol: The brain extraction ratio E was calculated from E=BUI*0.62, where 0.62 represents the brain extraction ratio of tritiated water (Pardridge, W. M. et al. “Absence of albumin receptor on brain capillaries in vivo or in vitro” Am. J. Physiol, 1985, 249, E264-E267). In order to quantify a possible sequestration of [^14C]-42 by the brain microvasculature, the brain hemispheres of 3 rats were submitted to capillary depletion (Triguero, D, et al. “Capillary depletion method for quantifying the blood-brain barrier transcytosis of circulating peptides and plasma proteins” J. Neurochem, 1990, 54, 1882-1888). The ^14C-radioactivity observed in the pellet (capillary bed/endothelial cells and pericytes) was compared to the ^14C-radioactivity observed in the supernatant (transcytosis space/interstitial fluid).

[4] = In vitro blood distribution; assay type: in vitro ADME; conditions: rat blood, 5-5000 ng/mL
Protocol: (§1) In vitro blood distribution and plasma protein binding. For blood distribution studies, fresh, heparinized rat blood (n=3) was spiked with [^14C]-42 to achieve the final concentrations of 5, 50, 500 and 5000 ng/mL. After a 30-minutes incubation at 4° C., 22° C. and 37° C., the samples were centrifuged (1600×g, 10 minutes, at the incubation temperature) to get plasma. The fraction free of 42 in plasma of rat and human was determined by equilibrium dialysis. Phosphate buffer was spiked with [^14C]-42 (50, 500, 5000 ng/mL) and dialyzed versus blank rat and human plasma at 37° C. for 2 hours. The radioactivity was determined in spiked blood samples, in plasma obtained after centrifugation and in both compartments after dialysis.

[5] = Plasma protein binding, equilibrium dialysis, rat plasma; assay type: in vitro ADME
Protocol: as §1

[6] = cortex, SRIF-28 +MgCl-2, 0.3 mg/kg s.c.
[7] = cortex, SRIF-28 +MgCl-2, 1 mg/kg s.c.
[8] = cortex, SRIF-28 +MgCl-2, 3 mg/kg s.c.
[9] = cortex, SRIF-28 +MgCl-2, 10 mg/kg s.c.
[10] = hippocampus, SRIF-28 +MgCl-2, 0.3 mg/kg s.c.
[11] = hippocampus, SRIF-28 +MgCl-2, 1 mg/kg s.c.
[12] = hippocampus, SRIF-28 +MgCl-2, 3 mg/kg s.c.
[13] = hippocampus, SRIF-28 +MgCl-2, 10 mg/kg s.c.
[14] = 48 hours i.v. infusion 100 μg/h

Which results are given for Cc1cccc2c(CC3C(=O)N(CCCCCN)C(=O)N3S(=O)(=O)c3ccc(Oc4ccc(O)cc4)c(C#N)c3)c[nH]c12 (centres unmarked) [Compound 14]?
NS non specific binding, individual animals [1, 6]: 3058 cpm and 2970 cpm and 3027 cpm; NS non specific binding, mean [1, 6]: 3018 cpm; SB specific binding, individual animals [1, 6]: 24318 cpm and 23238 cpm and 23669 cpm; SB specific binding, mean [1, 6]: 23742 cpm; TB total binding, individual animals [1, 6]: 27376 cpm and 26208 cpm and 26696 cpm; TB total binding, mean [1, 6]: 26760 cpm; percent specific binding remaining compared to controls [1, 6]: 89%; NS non specific binding, individual animals [1, 7]: 2915 cpm and 3036 cpm and 3191 cpm; NS non specific binding, mean [1, 7]: 3047 cpm; SB specific binding, individual animals [1, 7]: 21767 cpm and 23930 cpm and 23905 cpm; SB specific binding, mean [1, 7]: 23201 cpm; TB total binding, individual animals [1, 7]: 24682 cpm and 26966 cpm and 27096 cpm; TB total binding, mean [1, 7]: 26248 cpm; percent specific binding remaining compared to controls [1, 7]: 95%; NS non specific binding, individual animals [1, 8]: 2980 cpm and 3016 cpm and 3116 cpm; NS non specific binding, mean [1, 8]: 3037 cpm; SB specific binding, individual animals [1, 8]: 22191 cpm and 21992 cpm and 22578 cpm; SB specific binding, mean [1, 8]: 22254 cpm; TB total binding, individual animals [1, 8]: 25171 cpm and 25008 cpm and 25694 cpm; TB total binding, mean [1, 8]: 25291 cpm; percent specific binding remaining compared to controls [1, 8]: 91%; NS non specific binding, individual animals [1, 9]: 3070 cpm and 3015 cpm and 3305 cpm; NS non specific binding, mean [1, 9]: 3130 cpm; SB specific binding, individual animals [1, 9]: 22730 cpm and 21395 cpm and 23605 cpm; SB specific binding, mean [1, 9]: 22577 cpm; TB total binding, individual animals [1, 9]: 25800 cpm and 24410 cpm and 26910 cpm; TB total binding, mean [1, 9]: 25707 cpm; percent specific binding remaining compared to controls [1, 9]: 93%; NS non specific binding, individual animals [1, 10]: 2936 cpm and 2874 cpm and 2753 cpm; NS non specific binding, mean [1, 10]: 2854 cpm; SB specific binding, individual animals [1, 10]: 18219 cpm and 18124 cpm and 19319 cpm; SB specific binding, mean [1, 10]: 18554 cpm; TB total binding, individual animals [1, 10]: 21155 cpm and 20998 cpm and 22072 cpm; TB total binding, mean [1, 10]: 21408 cpm; percent specific binding remaining compared to controls [1, 10]: 112%; NS non specific binding, individual animals [1, 11]: 2754 cpm and 2528 cpm and 2621 cpm; NS non specific binding, mean [1, 11]: 2634 cpm; SB specific binding, individual animals [1, 11]: 17055 cpm and 18516 cpm and 18145 cpm; SB specific binding, mean [1, 11]: 17905 cpm; TB total binding, individual animals [1, 11]: 19809 cpm and 21044 cpm and 20766 cpm; TB total binding, mean [1, 11]: 20540 cpm; percent specific binding remaining compared to controls [1, 11]: 108%; NS non specific binding, individual animals [1, 12]: 2532 cpm and 2841 cpm and 2786 cpm; NS non specific binding, mean [1, 12]: 2720 cpm; SB specific binding, individual animals [1, 12]: 15758 cpm and 14336 cpm and 15162 cpm; SB specific binding, mean [1, 12]: 15085 cpm; TB total binding, individual animals [1, 12]: 18290 cpm and 17117 cpm and 17948 cpm; TB total binding, mean [1, 12]: 17805 cpm; percent specific binding remaining compared to controls [1, 12]: 91%; NS non specific binding, individual animals [1, 13]: 2587 cpm and 2850 cpm and 2711 cpm; NS non specific binding, mean [1, 13]: 2716 cpm; SB specific binding, individual animals [1, 13]: 15809 cpm and 14387 cpm and 13715 cpm; SB specific binding, mean [1, 13]: 14637 cpm; TB total binding, individual animals [1, 13]: 18398 cpm and 17237 cpm and 18426 cpm; TB total binding, mean [1, 13]: 17353 cpm; percent specific binding remaining compared to controls [1, 13]: 88%

What does the source list for N#Cc1cc(S(=O)(=O)N2C(=O)N(CCCCCN)C(=O)C2Cc2c[nH]c3ccccc23)ccc1Oc1ccc(N)cc1 (centres unmarked) [Compound 42]?
concentration at 48 h ([2]; brain, 48 hours i.v. infusion 100 μg/h, read-out: Concentration in brain, MEAN ± SD): 18 ± 7 ng/g; Kp at 48 h ([2]; 48 hours i.v. infusion 100 μg/h, read-out: Brain/Blood Ratio, MEAN ± SD): 0.27 ± 0.07; Kp at 48 h ([2]; 48 hours i.v. infusion 100 μg/h, read-out: Brain/Blood Ratio, individual animals): 0.27; concentration at 48 h ([2]; whole blood, 48-hours i.v. infusion of 100 μg/h, read-out: blood concentration): 66 ± 14 ng/mL; concentration at 48 h ([2]; whole blood, 48 hours i.v. infusion 100 μg/h, read-out: Concentration in blood, MEAN ± SD): 66 ± 14 ng/g; concentration at 48 h ([2]; whole blood, 48 hours i.v. infusion 100 μg/h, read-out: Concentration in blood, individual animals): 59 ng/g; Brain/Blood Ratio, MEAN ± SD [2, 14]: 0.27 ± 0.07; Brain/Blood Ratio, individual animals [2, 14]: 0.27 and 0.38 and 0.21 and 0.22; Concentration in brain, MEAN ± SD [2, 14]: 18 ± 7 ng/g; Concentration in brain, individual animals [2, 14]: 16 ng/g (2×) and 21 ng/g and 29 ng/g and 10 ng/g; fraction taken up by capillaries, of the brain penetration [3]: 5%; proportion present in plasma at 4° C. ([4]; 4° C.): 69-92%; proportion present in plasma at 37° C. ([4]; 37° C.): 40-60%; binding to plasma proteins [5]: 90%; fraction free in rat plasma ([5]; 50-5000 ng/mL, 37° C.): 10-12%

Reference: US20040019092A1, “Non-peptide somatostatin receptor ligands” (priority 2001, published 2004)
